Source: PMC11817512, “In Slico Screening and In Vitro Identification of Hyperuricemia-Inhibiting Peptides from Trachurus japonicus” (Foods, 2025)
Where a SMILES comes first, the peptide text is derived from it. Where no end group is shown, it is not given here.

Key:
[1] = system: HK-2 cells; assay: Uric acid (UA) level in hyperuricemia HK-2 cell model; type: cell-based; conditions: 24 h, then 2.5 mM adenosine 30 h and XOD 12 h, n = 3
Protocol: The cell modeling process was carried out by following the method of Mao et al., with certain modifications. HK-2 cells were cultured in DMEM supplemented with 10% FBS at 37 °C under a 5% CO2 environment for 24 h. […] The control group and the model group were also cultured in the medium for the same period of time. Subsequently, the experimental group, the positive group, and the model group were incubated with 2.5 mM adenosine for 30 h and then further incubated with XOD (at a concentration of 0.005 U/mg) for 12 h. The content and concentration of UA in the cell supernatant were measured using a XOD assay kit.

[2] = system: HK-2 cells
From the text: HK-2 cells were procured from the National Collection of Authenticated Cell Cultures (SCSP-511, Shanghai, China). The cytotoxicity of the peptides was appraised through a CCK-8 assay in line with the methodology of Gan, Cao, Cai, Xiang, Li, and Luan [30]. HK-2 cells were inoculated in 96-well plates (3 × 10^4 cells per well) and cultivated in Dulbecco’s Modified Eagle Medium (DMEM; provided by Life Technologies Corp., New York, NY, USA) supplemented with 10% fetal bovine serum (FBS; from Life Technologies Corp., New York, NY, USA) at 37 °C in an atmosphere containing 5% CO2 for a duration of 24 h. Peptides were introduced into the wells, and, following a 24 h incubation period, 10 μL of CCK-8 reagent was added to each well and incubated for 1 h. The absorbance was gauged at 450 nm using a microplate reader (Spark, Tecan, Austria).

[3] = biological target: T1, XOD (Bos taurus, UniProt P80457); assay: In vitro XOD inhibitory assay; type: biochemical; conditions: XOD from milk, xanthine substrate, PBS pH 7.4, 37 °C, absorbance 295 nm, mean ± SD, n = 3; as restated in section 3.5.1; read-out: IC50 for XOD (three-decimal values)
T1 construct: Xanthione oxidase (XOD) from milk; purchased Solarbio Co., Ltd. (Beijing, China); host or cells: milk
From the text: Xanthione oxidase (XOD) from milk, 1,1-Diphenyl-2-picrylhydrazyl (DPPH), 2,2′-azino-bis(3-ethylbenzothiazoline-6-sulfonic acid) (ABTS), a xanthine oxidase assay kit, and glutathione (GSH) were purchased from Solarbio Co., Ltd. (Beijing, China). Allopurinol was purchased from Aladdin Co. Ltd. (Shanghai, China). UA was purchased from Sigma-Aldrich Co. LLC. (St. Louis, MO, USA). A Cell Counting Kit-8 (CCK-8) was obtained from APExBIO Technology LLC. (Houston, TX, USA). Other chemicals were provided by Sinopharm Chemical Reagent Co., Ltd. (Shanghai, China) and were of analytical grade.
The in vitro XOD inhibitory assay was carried out by adopting the approach of Zhao et al., with minor alterations. Xanthine and XOD were, respectively, dissolved in phosphate-buffered solution (PBS, with a pH value of 7.4) at concentrations of 1.5 mM and 0.1 U/mL. Peptides of different concentrations (10, 20, 40, 80, and 160 mM) were dissolved in the PBS. A total of 120 μL of the sample solution, 150 μL of PBS, and 100 μL of XOD solution were combined and allowed to react thoroughly at 37 °C for 15 min. Subsequently, 120 μL of xanthine solution was added and the reaction was continued for an additional 20 min. Eventually, 150 μL of 1 M HCl was added to halt further enzymatic activity, and the absorbance was determined at 295 nm by means of an ultraviolet spectrophotometer (TU-1810PC, Purkinje, Beijing, China). The XOD inhibition rate was calculated according to Equation (1).XOD inhibition rate (%) = [1 − (A1 − A3)/(A2 − A4)] × 100%(1) where A1 is the absorbance after the mixed reaction of the inhibitor, XOD, and xanthine; A2 is the absorbance after the reaction of xanthine and XOD without adding the inhibitor; A3 is the absorbance of the sample and xanthine without adding XOD; and A4 is the absorbance of the xanthine solution without adding XOD and the inhibitor. […]

[4] = system: GLUT9; assay: GLUT9 urate transport / protein expression at the cellular level (Western blot); type: cell-based; conditions: HK-2 cells
From the text: (§1) The protein expressions of URAT1 and GLUT9 within cells were detected by means of Western blot, in accordance with the method of Mao, Jiang, and Mao [32]. The primary antibodies were as follows: URAT1 (1:1000; Cat#14937-1AP; Proteintech, Wuhan, China), GLUT9 (1:1000; Cat#ab223470; Abcam, Shanghai, China), and β-actin (1:5000; Cat#ab6276; Abcam). The secondary antibodies were as follows: Goat Anti-Mouse IgG H&L (HRP) (Cat#ab205719; Abcam) and Goat Anti-Rabbit IgG H&L (HRP) (Cat#ab6721; Abcam). The protein levels were quantitatively gauged using ImageJ software (1.8.0.112).

[5] = system: URAT1; assay: URAT1 urate transport / protein expression at the cellular level (Western blot); type: cell-based; conditions: HK-2 cells
From the text: as §1

T1 sequence (P80457 whole entry): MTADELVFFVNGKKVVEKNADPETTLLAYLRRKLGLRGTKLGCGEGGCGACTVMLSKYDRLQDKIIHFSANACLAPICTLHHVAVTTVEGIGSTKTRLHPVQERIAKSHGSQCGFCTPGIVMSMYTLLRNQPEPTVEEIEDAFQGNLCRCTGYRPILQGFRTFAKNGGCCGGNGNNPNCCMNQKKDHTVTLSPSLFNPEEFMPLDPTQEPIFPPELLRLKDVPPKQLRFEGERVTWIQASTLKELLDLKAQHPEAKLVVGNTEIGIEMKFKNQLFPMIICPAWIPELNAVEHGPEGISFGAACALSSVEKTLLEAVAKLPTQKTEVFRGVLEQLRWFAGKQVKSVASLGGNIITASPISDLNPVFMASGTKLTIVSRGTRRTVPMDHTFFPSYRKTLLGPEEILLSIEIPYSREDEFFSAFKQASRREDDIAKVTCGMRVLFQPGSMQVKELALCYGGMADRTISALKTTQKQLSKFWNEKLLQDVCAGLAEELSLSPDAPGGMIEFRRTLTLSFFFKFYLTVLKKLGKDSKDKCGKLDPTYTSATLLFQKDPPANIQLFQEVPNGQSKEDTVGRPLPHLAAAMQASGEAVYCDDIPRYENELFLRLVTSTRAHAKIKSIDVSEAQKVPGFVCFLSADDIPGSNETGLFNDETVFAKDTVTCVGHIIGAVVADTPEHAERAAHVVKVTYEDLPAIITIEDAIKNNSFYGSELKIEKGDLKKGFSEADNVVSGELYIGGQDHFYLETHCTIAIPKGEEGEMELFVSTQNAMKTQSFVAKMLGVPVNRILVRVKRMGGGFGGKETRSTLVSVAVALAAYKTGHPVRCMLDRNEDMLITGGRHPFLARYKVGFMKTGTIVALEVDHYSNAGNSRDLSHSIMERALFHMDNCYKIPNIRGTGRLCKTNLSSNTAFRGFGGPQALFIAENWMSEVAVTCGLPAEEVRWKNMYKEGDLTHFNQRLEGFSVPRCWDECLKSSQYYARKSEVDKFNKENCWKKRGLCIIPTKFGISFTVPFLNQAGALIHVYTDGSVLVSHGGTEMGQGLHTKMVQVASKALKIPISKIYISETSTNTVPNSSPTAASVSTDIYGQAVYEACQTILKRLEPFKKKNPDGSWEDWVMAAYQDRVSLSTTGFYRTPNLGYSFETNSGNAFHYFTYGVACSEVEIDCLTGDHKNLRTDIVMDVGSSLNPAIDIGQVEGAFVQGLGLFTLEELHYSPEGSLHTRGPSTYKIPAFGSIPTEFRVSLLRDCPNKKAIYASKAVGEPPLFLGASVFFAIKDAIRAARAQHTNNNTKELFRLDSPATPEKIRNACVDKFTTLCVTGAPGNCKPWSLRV

Compound	reduction of UA levels in HK-2 cells, allopurinol ([1]; 0.1 mM allopurinol) [%]	cell viability of HK-2 at higher doses [2]	IC50 [3] [mM]	reduction of UA levels in HK-2 cells, peptides ([1]; peptide 4 mM (section 3.4)) [%]	reduction of urate transport by GLUT9 in cells [4]	reduction of urate transport by URAT1 in cells [5]
Oc1ncnc2[nH]ncc12 [allopurinol, reference compound]	52.25					
NC(=O)CC[C@H](N)C(=O)N1CCC[C@H]1C(=O)N[C@@H](CO)C(=O)N[C@@H](Cc1ccccc1)C(=O)O [QPSF] (H-QPSF-OH)		slight reductions in cell viability	38.4 ± 7.25			
AGDDAPR [AGDDAPR]		slight reductions in cell viability	66 ± 10.9			
N[C@@H](CC(=O)O)C(=O)N[C@@H](Cc1ccccc1)C(=O)O [DF] (H-Asp-Phe-OH; N-terminus and C-terminus assumed)		slight reductions in cell viability		45.57	can effectively diminish the transport of urate by GLUT9 within cells	can curtail the transport of urate by URAT1 in cells
C[C@H](N)C(=O)NCC(=O)N[C@@H](Cc1ccccc1)C(=O)O [AGF] (H-Ala-Gly-Phe-OH)		slight reductions in cell viability	48.6 ± 9.95			
